Assay results reported in PubChem BioAssay (NCI).
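Test compounds were applied to cells in 96-well plates for 48 hours at 5 doses. TGI marks complete inhibition of growth.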

What was measured:
Experiment in all cases: DTP human tumour cell line panel, 48 h
[1] = system: SR leukemia
[2] = system: U251 CNS
[3] = system: SNB-19 CNS
[4] = system: MDA-MB-231 breast
[5] = system: SK-MEL-5 melanoma
[6] = system: HCC-2998 colon
[7] = system: PC-3 prostate
[8] = system: BT-549 breast
[9] = system: OVCAR-5 ovarian
[10] = system: MOLT-4 leukemia
[11] = system: KM12 colon
[12] = system: ACHN renal
[13] = system: UACC-257 melanoma
[14] = system: OVCAR-3 ovarian
[15] = system: M14 melanoma
[16] = system: COLO 205 colon
[17] = system: SF-295 CNS
[18] = system: NCI-H23 lung
[19] = system: UO-31 renal
[20] = system: MALME-3M melanoma
[21] = system: UACC-62 melanoma
[22] = system: DU-145 prostate
[23] = system: HL-60(TB) leukemia
[24] = system: A549 NSCLC
[25] = system: OVCAR-4 ovarian
[26] = system: NCI-H226 lung
[27] = system: CCRF-CEM leukemia
[28] = system: OVCAR-8 ovarian
[29] = system: K-562 leukemia
[30] = system: SK-MEL-28 melanoma
[31] = system: NCI/ADR-RES ovarian
[32] = system: HCT-116 colon
[33] = system: NCI-H460 lung
[34] = system: A498 renal
[35] = system: SW-620 colon
[36] = system: T-47D breast
[37] = system: MCF7 breast
[38] = system: SK-OV-3 ovarian
[39] = system: SNB-75 CNS
[40] = system: HOP-92 NSCLC
[41] = system: 786-0 renal
[42] = system: SF-539 CNS
[43] = system: MDA-MB-435
[44] = system: HCT-15 colon
[45] = system: HS 578T breast
[46] = system: NCI-H522 lung
[47] = system: SF-268 CNS
[48] = system: CAKI-1 renal
[49] = system: EKVX NSCLC
[50] = system: MDA-N
[51] = system: IGROV1 ovarian
[52] = system: SK-MEL-2 melanoma
[53] = system: RXF 393 renal
[54] = system: SN12C renal
[55] = system: TK-10 renal
[56] = system: HT29 colon
[57] = system: RPMI-8226 leukemia
[58] = system: M19-MEL melanoma
[59] = system: SNB-78 CNS
[60] = system: KM20L2 colon
[61] = system: LXFL 529 NSCLC
[62] = system: LOX IMVI melanoma
[63] = system: DLD-1 colon
[64] = system: DMS 273 small cell lung
[65] = system: HOP-62 NSCLC

S=c1[nH]c(=S)c2cc(Sc3ccc4[nH]c(=S)[nH]c(=S)c4c3)ccc2[nH]1 was tested, and the TGI [1] was 51.2 µM, the TGI [2] was greater than 100 µM and the TGI [3] was 78.2 µM. For the same compound, the TGI [4] was greater than 100 µM, the TGI [5] was greater than 100 µM and the TGI [6] was greater than 100 µM. It also gave a TGI [7] greater than 100 µM, a TGI [8] of 73.2 µM and a TGI [9] greater than 100 µM. The TGI [10] was greater than 100 µM, the TGI [11] was 62.5 µM and the TGI [12] was greater than 100 µM. The TGI [13] was greater than 100 µM, the TGI [14] was greater than 100 µM and the TGI [15] was greater than 100 µM. The TGI [16] was 52.4 µM, the TGI [17] was 47.1 µM and the TGI [18] was 51.4 µM. The TGI [19] was 82.4 µM, the TGI [20] was greater than 100 µM and the TGI [21] was 36.3 µM. The TGI [22] was greater than 100 µM, the TGI [23] was 62.8 µM and the TGI [24] was greater than 100 µM. For the same compound, the TGI [25] was 49.7 µM, the TGI [26] was 52.5 µM and the TGI [27] was 80.9 µM. The TGI [28] was 48.1 µM, the TGI [29] was greater than 100 µM and the TGI [30] was greater than 100 µM. It also gave a TGI [31] greater than 100 µM, a TGI [32] greater than 100 µM and a TGI [33] greater than 100 µM. For the same compound, the TGI [34] was 44 µM, the TGI [35] was greater than 100 µM and the TGI [36] was greater than 100 µM. It also gave a TGI [37] greater than 100 µM, a TGI [38] of 60 µM and a TGI [39] of 42.6 µM. The TGI [40] was 57.4 µM, the TGI [41] was 40 µM and the TGI [42] was 82.8 µM. For the same compound, the TGI [43] was greater than 100 µM, the TGI [44] was greater than 100 µM and the TGI [45] was 56.1 µM. It also gave a TGI [46] greater than 100 µM, a TGI [47] of 68 µM and a TGI [48] of 83.7 µM. It also gave a TGI [49] greater than 100 µM, a TGI [50] greater than 100 µM and a TGI [51] of 86.8 µM. For the same compound, the TGI [52] was greater than 100 µM, the TGI [53] was 53.3 µM and the TGI [54] was greater than 100 µM. The TGI [55] was 67.7 µM, the TGI [56] was greater than 100 µM and the TGI [57] was 54.9 µM.
Work on CCC(CC)n1c(C)nc2c1C(=O)c1ccccc1C2=O yielded a TGI [1] greater than 100 µM, a TGI [2] greater than 100 µM and a TGI [3] greater than 100 µM. For the same compound, the TGI [5] was 37.1 µM, the TGI [58] was 33.4 µM and the TGI [6] was greater than 100 µM. It also gave a TGI [59] greater than 100 µM, a TGI [10] greater than 100 µM and a TGI [11] greater than 100 µM. For the same compound, the TGI [60] was greater than 100 µM, the TGI [12] was greater than 100 µM and the TGI [13] was 72.7 µM. The TGI [14] was 75.7 µM, the TGI [15] was greater than 100 µM and the TGI [16] was greater than 100 µM. It also gave a TGI [17] greater than 100 µM, a TGI [18] of 54 µM and a TGI [19] greater than 100 µM. The TGI [20] was 73.6 µM, the TGI [21] was 36.2 µM and the TGI [61] was greater than 100 µM. For the same compound, the TGI [23] was greater than 100 µM, the TGI [24] was greater than 100 µM and the TGI [25] was greater than 100 µM. For the same compound, the TGI [26] was greater than 100 µM, the TGI [27] was greater than 100 µM and the TGI [28] was greater than 100 µM. It also gave a TGI [29] greater than 100 µM, a TGI [62] of 54.7 µM and a TGI [30] greater than 100 µM. It also gave a TGI [32] of 77.4 µM, a TGI [33] of 49.7 µM and a TGI [35] greater than 100 µM. The TGI [63] was greater than 100 µM, the TGI [38] was greater than 100 µM and the TGI [39] was greater than 100 µM. The TGI [40] was greater than 100 µM, the TGI [41] was greater than 100 µM and the TGI [42] was greater than 100 µM. It also gave a TGI [64] greater than 100 µM, a TGI [44] greater than 100 µM and a TGI [46] greater than 100 µM. For the same compound, the TGI [47] was greater than 100 µM, the TGI [49] was greater than 100 µM and the TGI [51] was greater than 100 µM. The TGI [52] was greater than 100 µM, the TGI [53] was greater than 100 µM and the TGI [54] was greater than 100 µM. It also gave a TGI [65] greater than 100 µM, a TGI [55] greater than 100 µM and a TGI [56] greater than 100 µM.
